Measured values published in patent US11065335B2, “Methods of treating leukemia using compositions containing bis(benzylthio)octanoic acid and ion pairs thereof” (Rafael Pharmaceuticals, Inc., priority 2007, dated 2021).
Where a name gives a salt, the structure may show the parent alone.

Experiments:
[1] = test system: BXPC3 human pancreatic cancer cells; experiment: CellTiter Glo cell viability assay, BXPC3 cells
Description: (§1) Two types of human tumor cells were used in this investigation: BXPC3 human pancreatic cancer cells and A2780 human ovarian cancer cells. The BXPC3 cells were originally obtained from American Type Cell Culture (ATCC). The ovarian tumor cells were gifts from Roswell Park Cancer Institute, Buffalo, N.Y. All tumor cells were maintained at 37° C. in a humidified 5% CO2 atmosphere in T75 tissue culture flasks containing 20 mL of Roswell Park Memorial Institute (RPMI) 1640 containing 2 mM L-glutamine, 10% fetal bovine serum (FBS) and 1% penicillin and streptomycin (100 IU/mL penicillin and 100 μg/mL streptomycin). The tumor cells were split at a ratio of 1:5 every 4-5 days by trypsinization and resuspended in fresh medium in a new flask. Cells were harvested for experiments at 70-90% confluency.
(§2) CPI-613 (i.e., 6,8-bis(benzylthio)octanoic acid) stock solutions at concentrations of 8, 4, 2, 1.5 and 0.5 mM were prepared in the appropriate vehicles. The molar ratio of vehicle to CPI-613 was maintained at 8:1. The corresponding vehicle concentrations were 64, 32, 16, 12, and 4 mM respectively. A sixty-four mM aliquot of vehicle was dissolved in 10 mL of water. Next, 8 mM of CPI-613 was added and the mixture was stirred until a clear solution was obtained. […] A 5 μL aliquot of this stock solution was added to 95 μL of tumor cells in media. Upon dilution in the wells, the corresponding drug concentrations were 400, 200, 100, 75 and 25 μM respectively.
(§3) For the sodium salt and potassium salt form of CPI-613, 1 equivalent of CPI-613 solid was dissolved in water. Sixty-two mg of CPI-613 (0.00016 mol) was added to 10 mL of water, then 165 μL of 1M NaOH or KOH was added and stirred until a clear solution was obtained. This gave a 16 mM solution. The resulting 16 mM solution was then serially diluted, thereby providing 8 mM and 4 mM solutions of the CPI-613 salt form. For the ammonium salt, vehicle to drug ratio was maintained at 8:1 and the formulation was prepared using procedures analogous to those described above in Section 2 relating to preparation of CPI-613 formulations in different vehicles.
(§4) CPI-613 formulated in 1M triethanolamine (TEA) was used as an internal control during formulation screening. To prepare a 16 mM of working stock of CPI-613, 50 mg/mL of CPI-613 (128.66 mM of CPI-613 in 1M TEA) was diluted in complete cell culture media containing 10% FBS. That is, 310 μL of a 128.66 mM solution of CPI-613 in 1M TEA was added to 2.19 mL of cell culture media. This stock was further diluted serially in complete media to give 8 mM, 4 mM 2 mM, 1.5 mM and 0.5 mM working solutions. On the day of testing, 5 μL of this working solution was added to 95 μL of cell culture media (20 fold dilution) resulting final concentrations of 400, 200, 100, 75 and 25 μM CPI-613, respectively. The ratio of CPI-613 to TEA was maintained at 1:8 ratio at all times.
(§5) The cell viability of CPI-613 formulations formulated at a ratio of 1:8, CPI-613 to vehicle, was assessed by exposing the A2780 ovarian tumor cells and BXPC3 human pancreatic cancer cells to the following CPI-613 concentrations: 400 μM (3200 μM vehicle), 200 μM (1600 μM vehicle), 100 μM (800 μM vehicle), 75 μM (600 μM vehicle) and 25 μM (200 μM vehicle) The impact of corresponding vehicles at 3200, 1600 and 800 μM concentrations was also tested in tumor cells for cell viability. […] CPI-613 in TEA was used as an internal control. The tumor cells were treated for 24 hrs with the test article in serum-containing medium. After 24 hrs of treatment the number of viable tumor cells was determined.
(§6) The number of cells targeted for the study was 4×10^3 per well in 100 μL of medium. The actual number of cells were counted and seeded in the wells of a 96 well-plate. The cells were incubated for ˜24 hrs before addition of CPI-613.
(§7) For each cell line the concentrations of test articles or vehicles specified above was used.

[2] = test system: A2780 human ovarian cancer cells; experiment: CellTiter Glo cell viability assay, A2780 cells
Description: as §1, §2, §3, §4, §5, §6, §7

[3] = test system: BXPC3 human pancreatic cancer cells; experiment: PI/Annexin Alexa Fluor 488 staining, FACS, type of cell death; format: cell-based; settings: 300 μM of CPI-613; 24 hours
Description: Apoptotic cells will stain Annexin V positive but PI negative because the PI cannot cross the intact cell membrane. Necrotic cells will stain positive for both Annexin V and PI because the cell membrane is not intact.
BxPC3 human pancreatic cancer cells were used in this investigation. These tumor cells were originally obtained from American Type Cell Culture (ATCC, Manassas, Va.). […] Cells were split at a ratio of 1:10 every 2-3 days by trypsinization and resuspended in fresh medium in a new flask. Cells were harvested for experiments in the same way at 70-90% confluency.
2) A 1 mL aliquot of each test condition was added to corresponding well. Each treatment condition was run in duplicate. Cells were incubated for 24 hours with test conditions prior to PI/Annexin Staining.
3) After 24 hours, cells, including floating cells, with media were harvested and centrifuged at 1,400 RPM for 5 minutes.
4) For all samples the supernatant was aspired off, and the pellet was resuspended in 3 mL PBS and then centrifuged again at 1,400 RPM for 5 minutes, for a total of 2 washes.
Cells were incubated with PI/Annexin V for 8 minutes.
6) The reaction was stopped by adding 400 μL 1× Annexin V binding buffer.
7) Samples were then taken to FACS facility to be read on the FACS Scan Flow Cytometer.

[4] = test system: Human H-460 Non Small Cell Lung Carcinoma (NSCLC) xenograft; experiment: Anti-tumor activity in mice with Human H-460 NSCLC xenograft; format: in vivo
Description: A study to assess the dose and dosing schedule effects on the anti-tumor activity of bis-benzyl lipoate was undertaken. More specifically, the pharmaceutical formulations of bis-benzyl lipoate of Comparative Example 1, i.e., bis-benzyl lipoate dissolved in 1:1 Tween 80:ethanol and diluted with saline, were tested in mice with Human H-460 Non Small Cell Lung Carcinoma (NSCLC) xenograft. The pharmaceutical formulations were administered intraperitoneally (IP), given 1× or 3× weekly. Administration of bis-benzyl lipoate began when the average tumor size of the mice was ˜300 mm^3. There were originally eight treatment groups, with seven mice in each group, investigating three doses (0.1, 1 and 10 mg/kg) and two dosing schedules, as shown in Table 1 below.
Specifically, both subgroups of each treatment group were treated with the same dose of bis-benzyl lipoate as in the original protocol; however, one of the two subgroups was treated with a pharmaceutical formulation of bis-benzyl lipoate according to Comparative Example 1, i.e., bis-benzyl lipoate dissolved in 1:1 Tween 80:ethanol and diluted with saline, and the other subgroup was treated with a pharmaceutical formulation of bis-benzyl lipoate according to Example 1, i.e., dissolved in TEA and diluted with D5W. […]

[5] = Stability of the drug product by visual observation and HPLC; format: physicochemical; settings: 50 mg/mL in 1M triethanolamine
Description: Bis-benzyl lipoate was provided in a concentrated form at a concentration of 50 mg/mL dissolved in 1M triethanolamine (TEA). The stability of the drug product was assessed by visual observation and by high-performance liquid chromatography (HPLC) assessment, performed at the beginning and the end of the study. […] The concentrated bis-benzyl lipoate solution was diluted to an appropriate concentration with 5% dextrose (D5W) to formulate 0.1, 1 and 10 mg/kg doses of bis-benzyl lipoate.

[6] = salt formulation at 200 μM, 24 hrs
[7] = salt formulation at 400 μM, 24 hrs

| SMILES | BXPC3 Cell Viability (alkali salt formulations) ([1]; CPI-613 75 μM, CPI-613 to base 1:1, 24 hrs) | viability at 25 µM ([1]; Homo sapiens, BXPC-3, 24 h, read-out: BXPC3 Cell Viability (alkali salt formulations), CPI-613 25 μM, CPI-613 to base 1:1) [%] | viability at 100 µM ([1]; Homo sapiens, BXPC-3, 24 h, read-out: BXPC3 Cell Viability (alkali salt formulations), CPI-613 100 μM, CPI-613 to base 1:1) [%] | viability at 200 µM ([1]; Homo sapiens, BXPC-3, 24 h, read-out: BXPC3 Cell Viability (alkali salt formulations), CPI-613 200 μM, CPI-613 to base 1:1) [%] | viability at 400 µM ([1]; Homo sapiens, BXPC-3, 24 h, read-out: BXPC3 Cell Viability (alkali salt formulations), CPI-613 400 μM, CPI-613 to base 1:1) [%] | cell kill in BXPC3 cells [1, 6] [%] | cell kill in BXPC3 cells [1, 7] | A2780 Cell Viability (alkali salt formulations) ([2]; CPI-613 200 μM, CPI-613 to base 1:1, 24 hrs) | viability at 25 µM ([2]; Homo sapiens, A2780, 24 h, read-out: A2780 Cell Viability (alkali salt formulations), CPI-613 25 μM, CPI-613 to base 1:1) [%] | viability at 75 µM ([2]; Homo sapiens, A2780, 24 h, read-out: A2780 Cell Viability (alkali salt formulations), CPI-613 75 μM, CPI-613 to base 1:1) [%] | viability at 100 µM ([2]; Homo sapiens, A2780, 24 h, read-out: A2780 Cell Viability (alkali salt formulations), CPI-613 100 μM, CPI-613 to base 1:1) [%] | viability at 400 µM ([2]; Homo sapiens, A2780, 24 h, read-out: A2780 Cell Viability (alkali salt formulations), CPI-613 400 μM, CPI-613 to base 1:1) [%] | cell kill in A2780 cells [2, 6] [%] | cell kill in A2780 cells [2, 7] | type of cell death (apoptosis or necrosis) [3] | anti-tumor effects compared to vehicle treatment ([4]; Comparative Example 1 formulation (Tween 80/ethanol/saline), IP, 0.1, 1, 10 mg/kg, 1x or 3x weekly) | H-460 tumor size versus 10 mg/kg in Comparative Example 1 formulation ([4]; Example 1 formulation (TEA/D5W), 0.1-10 mg/kg) | physical appearance (stability of the drug product, visual observation) ([5]; beginning and end of the study) | purity by HPLC (stability of the drug product) ([5]; both at the beginning and the end of the study) [%] |
| --- | --- | --- | --- | --- | --- | --- | --- | --- | --- | --- | --- | --- | --- | --- | --- | --- | --- | --- | --- |
| O=C(O)CCCCC(CCSCc1ccccc1)SCc1ccccc1 (stereo not shown) [CPI-613 sodium salt] | + (tumor cell viability of >95%) | > 95 | 70 to 95 | 30 to 70 | < 10 | ~50 | all the cells were killed | ++++ (tumor cell viability of >10% up to 30%) | 70 to 95 | 70 to 95 | 70 to 95 | < 10 | ~65 | all the cells were killed | higher number of cells in the state of apoptotic death versus the number of cells in the state of necrotic death |  |  |  |  |
| O=C(O)CCCCC(CCSCc1ccccc1)SCc1ccccc1 (stereo not shown) [bis-benzyl lipoate, 6,8-bis(benzylthio)octanoic acid] |  |  |  |  |  |  |  |  |  |  |  |  |  |  |  | did not induce any anti-tumor effects | may be smaller | did not change | > 99 |
